Results reported in publication PMC9214071 (Acta Pharmaceutica Sinica. B, 2022).
Where “and” joins values, the source holds several entries; their conditions need not be identical. Equal values may be shown once. Read-outs that look alike come from different tables or passages of the source. Marks after values point to notes of the source that are not given here.

Assays:
PAK4 [1] = molecular target: T1, PAK4 (Homo sapiens, UniProt O96013); assay: PAK4 HTRF assay; assay type: biochemical; conditions: for LE: Ligand efficiency = (−1.4 Log Ki)/(n heavy atoms); for LE / LLE / Ki: PAK4 Ki; for LLE: Ligand lipophilicity efficiency = (−Log Ki) − (cLogP); for Ki: HTRF, average of two independent experiments
PAK1 = PAK1 (Homo sapiens, UniProt Q13153); assay: PAK1 FRET-based Z'-Lyte assay; assay type: biochemical
A549 = assay: Wound-healing assay, A549 cell migration; assay type: cell-based, human; conditions: 20 μmol/L
PAK4 [2] = molecular target: T1, PAK4; conditions: read-out: PAK4 Ki (reported); cited from earlier work
[3] = Liver microsomal stability assay, MLM
in vitro = conditions: CD-1, mouse, mouse liver microsomes, pH 7.4
[4] = at least two duplicate experiments, SEM < ±20%

PAK1, sequence (Q13153 whole entry): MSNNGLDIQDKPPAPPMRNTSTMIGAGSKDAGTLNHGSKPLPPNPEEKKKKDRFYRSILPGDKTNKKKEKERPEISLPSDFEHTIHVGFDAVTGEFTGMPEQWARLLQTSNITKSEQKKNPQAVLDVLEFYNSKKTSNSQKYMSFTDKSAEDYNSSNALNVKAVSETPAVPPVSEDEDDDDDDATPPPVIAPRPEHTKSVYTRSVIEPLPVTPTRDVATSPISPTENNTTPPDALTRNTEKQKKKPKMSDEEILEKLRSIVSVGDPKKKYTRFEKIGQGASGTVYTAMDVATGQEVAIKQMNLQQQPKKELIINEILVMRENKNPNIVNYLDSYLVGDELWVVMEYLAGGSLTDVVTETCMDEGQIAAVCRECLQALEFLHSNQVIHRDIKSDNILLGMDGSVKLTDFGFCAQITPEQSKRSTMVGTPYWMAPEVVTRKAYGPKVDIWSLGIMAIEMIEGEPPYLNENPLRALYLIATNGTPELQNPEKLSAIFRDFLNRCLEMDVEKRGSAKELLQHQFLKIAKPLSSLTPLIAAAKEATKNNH
T1 sequence (O96013 whole entry): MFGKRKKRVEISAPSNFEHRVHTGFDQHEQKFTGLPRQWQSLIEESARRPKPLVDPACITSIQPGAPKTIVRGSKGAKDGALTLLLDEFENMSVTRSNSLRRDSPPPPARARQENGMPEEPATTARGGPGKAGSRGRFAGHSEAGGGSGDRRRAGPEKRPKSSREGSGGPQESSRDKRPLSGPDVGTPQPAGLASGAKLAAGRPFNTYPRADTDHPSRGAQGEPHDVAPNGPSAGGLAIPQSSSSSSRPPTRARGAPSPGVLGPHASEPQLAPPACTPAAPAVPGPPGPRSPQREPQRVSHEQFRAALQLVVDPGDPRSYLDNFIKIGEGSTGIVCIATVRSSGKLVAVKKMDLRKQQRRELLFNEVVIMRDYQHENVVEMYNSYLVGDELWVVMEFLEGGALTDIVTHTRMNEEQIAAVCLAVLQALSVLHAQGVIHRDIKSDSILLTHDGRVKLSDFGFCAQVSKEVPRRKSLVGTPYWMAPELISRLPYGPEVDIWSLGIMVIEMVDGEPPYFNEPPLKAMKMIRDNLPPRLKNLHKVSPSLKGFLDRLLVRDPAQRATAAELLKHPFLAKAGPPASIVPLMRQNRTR

SMILES | LE (PAK4 [1]) | Ki (PAK4 [1]) | also measured
Nc1nccc(-n2cc(C(=O)N3CCC[C@@H](O)C3)c3ccc(C#CC4(O)CCCCC4)cc32)n1 [Compound 49] | 0.27 | 207 nM | LLE (PAK4 [1]): 4.12; factor of reduced activity relative to 47 (PAK4 [1]; PAK4, relative to 47): 60
Nc1cc(-n2ccc3ccc(C#CC4(O)CCCCC4)cc32)nc(N)n1 [Compound 5b] | 0.33 | 370 nM | –
Nc1nccc(-n2cc(C(=O)Nc3nccs3)c3ccc(C#CC4(O)CCCCC4)cc32)n1 [Compound 32] | – | 243 nM | –
COc1ccc(Nc2nccc(-n3ccc4ccc(C#CC5(O)CCCCC5)cc43)n2)cc1 [Compound 24] | – | 298 nM | –
Nc1nccc(-n2cc(C(=O)NC3CCNCC3)c3ccc(C#CC4(O)CCCCC4)cc32)n1 [Compound 44] | 0.32 | 8.3 nM | LLE (PAK4 [1]): 5.28; Ki (PAK1; [4]): 4240 nM
OC1(C#Cc2ccc3ccn(-c4ccnc(NCc5ccc(F)cc5)n4)c3c2)CCCCC1 [Compound 13] | – | 291 nM | –
CN(C)C(=O)c1cn(-c2ccnc(N)n2)c2cc(C#CC3(O)CCCCC3)ccc12 [Compound 39] | – | 82 nM | –
COCCNc1nccc(-n2ccc3ccc(C#CC4(O)CCCCC4)cc32)n1 [Compound 28] | – | 680 nM | –
Nc1nccc(-n2cc(C(=O)NCc3ccccc3)c3ccc(C#CC4(O)CCCCC4)cc32)n1 [Compound 30] | – | 593 nM | –
Nc1nccc(-n2cc(C(=O)N[C@H]3CCNC3)c3ccc(C#CC4(O)CCCCC4)cc32)n1 [Compound 50] | 0.31 | 27.2 nM | LLE (PAK4 [1]): 4.40
Nc1nccc(-n2ccc3cc(F)c(C#CC4(O)CCCCC4)cc32)n1 [Compound 5a] | 0.38 | 82 nM | –
Nc1nccc(-n2cc(C(=O)N3CCOCC3)c3ccc(C#CC4(O)CCCCC4)cc32)n1 [Compound 37] | – | 119 nM | –
Nc1nccc(-n2cc(C(=O)N3CCC[C@H](N)C3)c3ccc(C#CC4(O)CCCCC4)cc32)n1 [Compound 45, (S)-(3-Aminopiperidin-1-yl) (1-(2-aminopyrimidin-4-yl)-6-((1-hydroxycyclohexyl)ethynyl)-1H-indol-3-yl)methanone] | 0.30 | 25.6 nM | LLE (PAK4 [1]): 4.80; Ki (PAK1; [4]): 2370 nM
Nc1nccc(-n2cc(C(=O)N3CC[C@H](N)C3)c3ccc(C#CC4(O)CCCCC4)cc32)n1 [Compound 53] | 0.31 | 22.7 nM | LLE (PAK4 [1]): 4.47; Ki (PAK1; [4]): 2870 nM
Nc1cc(-n2ccc3ccc(C#CC4(O)CCCCC4)cc32)ncn1 [Compound 5c] | 0.36 | 229 nM | –
Nc1nccc(-n2cc(C(=O)Nc3cc[nH]n3)c3ccc(C#CC4(O)CCCCC4)cc32)n1 [Compound 33] | – | 239 nM | –
Nc1ccn(C(=O)c2cn(-c3ccnc(N)n3)c3cc(C#CC4(O)CCCCC4)ccc23)n1 [Compound 34] | – | 94 nM | –
N#Cc1cccc(Nc2nccc(-n3ccc4ccc(C#CC5(O)CCCCC5)cc43)n2)c1 [Compound 18] | – | 242 nM | –
OC1(C#Cc2ccc3ccn(-c4ccnc(Nc5cccc(Cl)c5)n4)c3c2)CCCCC1 [Compound 16] | – | 105 nM | –
OC1(C#Cc2ccc3ccn(-c4ccnc(Nc5ccccc5F)n4)c3c2)CCCCC1 [Compound 20] | – | 396 nM | –
Nc1nccc(-n2cc(C(=O)N3CC[C@@H](N)C3)c3ccc(C#CC4(O)CCCCC4)cc32)n1 [Compound 51] | 0.31 | 25.5 nM | LLE (PAK4 [1]): 4.42; Ki (PAK1; [4]): 6340 nM
CN1CCN(C(=O)c2cn(-c3ccnc(N)n3)c3cc(C#CC4(O)CCCCC4)ccc23)CC1 [Compound 38] | – | 38 nM | –
Nc1nccc(-n2cc(C(=O)N3CCNCC3)c3ccc(C#CC4(O)CCCCC4)cc32)n1 [Compound 42] | 0.35 | 6.6 nM | LLE (PAK4 [1]): 4.97; fold increase of inhibitory capacity compared to 37 (PAK4 [1]; PAK4, relative to 37): 18 fold; A549, effect of compounds on the cell mobility (A549): 65% ^h; Ki (PAK1; [4]): 4990 nM
OC1(C#Cc2ccc3ccn(-c4ccnc(NCc5ccccc5)n4)c3c2)CCCCC1 [Compound 10] | – | 623 nM | –
NS(=O)(=O)c1cccc(Nc2nccc(-n3ccc4ccc(C#CC5(O)CCCCC5)cc43)n2)c1 [Compound 26] | – | 83 nM | –
Nc1nccc(-n2cc(C(=O)N3CCC(N)CC3)c3ccc(C#CC4(O)CCCCC4)cc32)n1 [Compound 43] | 0.29 | 42.6 nM | LLE (PAK4 [1]): 4.16; Ki (PAK1; [4]): 1610 nM

SMILES | LE (PAK4 [1]) | Ki (PAK4 [1]) | also measured
OC1(C#Cc2ccc3ccn(-c4ccnc(Nc5ccccc5C(F)(F)F)n4)c3c2)CCCCC1 [Compound 21] | – | 173 nM | –
OC1(C#Cc2ccc3ccn(-c4ccnc(NCc5ccccc5F)n4)c3c2)CCCCC1 [Compound 11] | – | 223 nM | –
Nc1nccc(-n2cc(C(=O)N3CCNC(=O)C3)c3ccc(C#CC4(O)CCCCC4)cc32)n1 [Compound 56, 4-(1-(2-Aminopyrimidin-4-yl)-6-((1-hydroxycyclohexyl)ethynyl)-1H-indole-3-carbonyl)piperazin-2-one] | 0.31 | 18.1 nM | LLE (PAK4 [1]): 5.17; Ki (PAK1; [4]): 4990 nM
Nc1nccc(-n2ccc3cnc(C#CC4(O)CCCCC4)cc32)n1 [Compound 8] | 0.42 | 13 nM | –
COCCNc1nc2ccc(C#CC3(O)CCCCC3)cc2n1-c1ccnc(N)n1 [GNE-2861, reference compound] | – | 35 nM and 35.3 nM | Ki (PAK1; [4]): 3130 nM; Ki (PAK4 [2]): 3 nM
Nc1nccc(-n2ccc3ccc(C#CC4(O)CCCCC4)nc32)n1 [Compound 9] | 0.36 | 183 nM | –
Cc1cnc(N)nc1-n1ccc2ccc(C#CC3(O)CCCCC3)cc21 [Compound 5d] | 0.35 | 182 nM | –
Nc1nccc(-n2ccc3ncc(C#CC4(O)CCCCC4)cc32)n1 [Compound 7] | 0.40 | 36 nM | –
NC(=O)c1cn(-c2ccnc(N)n2)c2cc(C#CC3(O)CCCCC3)ccc12 [Compound 41] | – | 14 nM | liver clearance [3]: 105.5 mL/min/kg; half-life at 1 μmol/L (in vitro): 23.7 min
CNC(=O)c1cn(-c2ccnc(N)n2)c2cc(C#CC3(O)CCCCC3)ccc12 [Compound 40] | – | 44 nM | –
CC(C)Nc1nccc(-n2ccc3ccc(C#CC4(O)CCCCC4)cc32)n1 [Compound 29] | – | 1110 nM | –
Cc1cccc(Nc2nccc(-n3ccc4ccc(C#CC5(O)CCCCC5)cc43)n2)c1 [Compound 19] | – | 212 nM | –
Cc1ccccc1Nc1nccc(-n2ccc3ccc(C#CC4(O)CCCCC4)cc32)n1 [Compound 22] | – | 709 nM | –
C[C@@H]1CN(C(=O)c2cn(-c3ccnc(N)n3)c3cc(C#CC4(O)CCCCC4)ccc23)CCN1 [Compound 54] | 0.27 | 148 nM | LLE (PAK4 [1]): 3.53; fold less potency than 55 against PAK4 (PAK4 [1]; relative to 55): approximately 14 fold
Nc1nccc(-n2cc(C(=O)Nc3ccccc3)c3ccc(C#CC4(O)CCCCC4)cc32)n1 [Compound 31] | – | 804 nM | –
O=[N+]([O-])c1cccc(Nc2nccc(-n3ccc4ccc(C#CC5(O)CCCCC5)cc43)n2)c1 [Compound 17] | – | 157 nM | –
Nc1nccc(-n2cc(C(=O)N3CCC[C@@H](N)C3)c3ccc(C#CC4(O)CCCCC4)cc32)n1 [Compound 47] | 0.34 | 3.4 nM | IC50 (PAK4 [1]): 6.3 nM; LLE (PAK4 [1]): 5.65; Ki (PAK1): 6990 nM; Ki (PAK1; [4]): 6990 nM
OC1(C#Cc2ccc3ccn(-c4ccnc(NCc5cccs5)n4)c3c2)CCCCC1 [Compound 14] | – | 7450 nM | –
OC1(C#Cc2ccc3ccn(-c4ccnc(Nc5ccccc5)n4)c3c2)CCCCC1 [Compound 15] | – | 217 nM | –
Nc1nccc(-n2ncc3ccc(C#CC4(O)CCCCC4)cc32)n1 [Compound 6] | 0.40 | 40 nM | –
Nc1nccc(-n2cc(C(=O)Nc3cc(O)[nH]n3)c3ccc(C#CC4(O)CCCCC4)cc32)n1 [Compound 35] | – | 376 nM | –
Nc1nccc(-n2cc(C(=O)N[C@@H]3CCCNC3)c3ccc(C#CC4(O)CCCCC4)cc32)n1 [Compound 48] | 0.33 | 5.6 nM | LLE (PAK4 [1]): 5.42; Ki (PAK1; [4]): 7130 nM
Nc1nccc(-n2cc(C(=O)N[C@@H]3CCNC3)c3ccc(C#CC4(O)CCCCC4)cc32)n1 [Compound 52] | 0.31 | 30.9 nM | LLE (PAK4 [1]): 5.48
Nc1nccc(-n2ccc3ccc(C#CC4(O)CCCCC4)cc32)n1 [Compound 5] | 0.39 | 66 nM | –
OC1(C#Cc2ccc3ccn(-c4ccnc(NCc5ccccc5Cl)n4)c3c2)CCCCC1 [Compound 12] | – | 355 nM | –
OC1(C#Cc2ccc3ccn(-c4ccnc(Nc5ccc(F)c(Cl)c5)n4)c3c2)CCCCC1 [Compound 25] | – | 189 nM | –
